In patent US12559784B2 (priority 2023, dated 2026):
Where “and” joins values, the source holds several entries; their conditions need not be identical. Equal entries are not always repeated. Where two headings read alike, the source gives them in different places.

Legend:
alkaline phosphatase [1] = format: biochemical
Method: New stocks were made the of the 1:100 alkaline phosphatase reaction reagents.
The conditions included: 1:100 dilution of alkaline phosphatase reaction reagent with two solvents (buffered saline and ethanol), dosing in 0.5 mL microcentrifuge tubes with 20 μL of chemical added to 180 μL of reaction reagent, and incubating with p-Nitrophenyl phosphate disodium salt (PNPP) substrate for 1-hour.

porcine skin = tested on: porcine skin
Method: Our initial studies involved using fresh and frozen porcine skin “buttons”. These buttons were punched out of porcine skin (Spear Products, Cooopersburg, PA) using a […] biopsy punch tool. Three different kinds of skin buttons were prepared from fresh porcine skin, frozen porcine skin, and frozen porcine skin with the fatty layer removed. […] The next day, the tubes were taken out and vortexed and 500 μL of the solution was aliquoted into cuvettes to read at three different optical density wavelengths (OD190, OD290, OD300) to evaluate the best response.
Skin Preparation • 1. Thaw 2 pieces of frozen porcine skin • 2. Punch out buttons: 24 buttons in each tube filled with 40 mL PB S-Azide 96-well plate Preparation • 1. Plate layout for dosing:
Procedure • 1. Dose each tissue with 140 μL of test chemical • 2. […] Take out of incubator and vortex pulse 3× • 2. Aliquot 500 μL to cuvette and read results at OD190, OD290, and OD300
There were three readings done at an optical density of 190, 290, and 300 nm to evaluate the best response. […] To address the variable exposure conditions, our next studies involved placing a larger porcine skin section into a holder that exposes only the epidermis side with no potential for test chemical exposure from the backside or through the sides.

phosphatase = format: biochemical, porcine; conditions: for percent of phosphatase measured (optical density compared to the naïve condition), average: average of two readings; for percent of phosphatase measured (optical density compared to the naïve condition): single readings
Method: Our next studies involved applying the test substance (500 μL) directly to the epidermis side of previously frozen porcine skin (Spear Products, Coopersburg, PA) that is placed in a holder that only exposes the epidermis side for 30 minutes, adding phosphate buffered saline (PBS) with added sodium azide (metabolic inhibitor that ensure no viable tissue), then aliquoting into cuvettes to read at an optical density of 300 nm. […] So, at the end of the initial studies described above, almost out of frustration, we tried to probe for released phosphatase activity using p-Nitrophenyl phosphate disodium salt (PNPP; Sigma Aldrich, St. Louis, MO) substrate solution to detect any presence of phosphatase.
Preparation • 1. Thaw 2 pieces of frozen porcine skin • a. Punch out as many skin discs and mount in holders • 2. Label cuvettes (3 for each chemical) Procedure • 1. Add 500 μL of test chemical to holder; incubate at room temperate for 30 minutes • 2. After 30 minutes, add 2 mL of PBS-Azide to both the holder containing the test chemical; forcefully pipette and re-pipette 10 times • 3. From the holder, aliquot 400 μL into 3 cuvettes; forcefully pipette and re-pipette 3 times before dispensing into cuvettes Reading Results • 1. Measure at OD300 for all cuvettes
Skin corrosion by GHS Category 1 dermal corrosive chemicals results in the disintegration of the epidermis into the dermis.

alkaline phosphatase [2] = experiment: Alkaline phosphatase experiment, third week: with and without discs; format: biochemical
From the text: Our next study focused on an in vitro method of detecting the potential of dermal corrosives to inhibit nonspecific phosphatases that may be released from the skin. We decided to test pure […] instead of relying on endogenous skin phosphatase. Alkaline phosphatase (Sigma Aldrich, St. Louis, MO) was purchased and suspended to make the reaction reagent (10,000 units). […] We note that the ratio used was 0.1 g/ml or 10% chemical—which is far in excess of any pharmaceutical applications. We further note that pharmaceutical enzyme inhibition tests, studies an use involve highly specific active site binding and these assays are conducted at ratios of micrograms-femtograms per ml. These studies are done at these ranges because these are the realistic concentrations for drug applications and therapeutics. […] So when a 50 Kg human consumes the tables, the tissues will be exposed at a 5 mg/50 kg=0.1 mg/kg=0.0000001 g/ml.
Next two quantitative methods were evaluated: 1) using the discs parts from our OptiSafe™ test method and 2) directly into the 24-well plate.
Preparation • 1. Alkaline phosphatase reaction reagent • a. Take 1 vial of AP, add 1 mL of PBS, mix by pipette/re-pipette 10 times • b. To a 50 mL conical tube, add 1 mL of the AP solution prepared above and 40 mL of PBS • 2. Prepare two 24-well plates (1 with discs, 1 without discs) • 3. […] Aliquot 200 μL PNPP and PBS Procedure • 1. Plate 1 (No Discs) • a. Add 1.25 mL from the prepared PBS-AP conical tube to each well (11 wells) • b. Add 100 μL of the test material to the well, mix with the same pipette tip, dispose and repeat for the rest of the test materials • c. Wrap the plate in saran wrap and place into the container • 2. Plate 2 (Discs) • a. Configure the 11 discs in the plate so the plate cover is stable • b. Add 1.25 mL from the prepared PBS-AP conical tube to each well (11 wells) • c. Add 100 μL of the test material to the center of the disc and repeat for the rest of the test materials • d. Put the plate cover on and place into the container • 3. […] Incubate for 1 hour Reading Results • 1. Measure at OD405

skin = conditions: cited from earlier work
alkaline phosphatase [3] = format: biochemical; conditions: 3-hour exposure; 10 μL into 90 μL
[4] = frozen porcine skin with fat layer removed, R 1 and 2
[5] = skin, chemical lists of the experiments
[6] = fresh porcine skin, 140 μL test chemical, R 1 and 2, >3A = outside readable range

## CC(C)(C)c1ccccc1O [2-tert-Butylphenol]
Alkaline phosphatase [1]
  A2 - Results AVG: 2.615
  A2 - Results R1: 2.829
  A2 - Results R3: 2.448

## CC(=O)O [Acetic acid]
Porcine skin; pig
  OD190: >3A
phosphatase
  percent of phosphatase measured (optical density compared to the naïve condition), average: 18.9%
  percent of phosphatase measured (optical density compared to the naïve condition): 19.1% and 18.6%
Alkaline phosphatase [2]; 405 nm, 100 μL chemical, 1.25 mL reaction reagent (10,000 units), 18 hours 37° C., PNPP 1 hour
  raw optical density reading (PNPP), with discs (FIG. 3A): 0.106 and 0.102 and 0.103
Alkaline phosphatase [2]; 405 nm, 100 μL chemical, 1.25 mL reaction reagent, 18 hours 37° C., PNPP 1 hour
  raw optical density reading (PNPP), without discs (FIG. 3B): 0.104 and 0.129 and 0.101
Alkaline phosphatase [1]
  A1 - Results AVG: 0.096
  A1 - Results R1: 0.096
  A1 - Results R3: 0.096
  A2 - Results AVG: 0.850
  A2 - Results R1: 0.996
  A2 - Results R3: 0.829
skin; rabbit, in vivo
  Corrosive: Yes

## BrCCc1ccccc1 [(2-Bromoethyl)benzene]
Porcine skin; fresh porcine skin, R 1 and 2
  OD290: 0.125 and 0.133
  OD300: 0.080 and 0.094
Porcine skin; [4]
  OD190: 0.131 and 0.144
  OD290: 0.071
  OD300: 0.030 and 0.034
Porcine skin; frozen porcine skin, R 1 and 2
  OD290: 0.279 and 0.254
  OD300: 0.137 and 0.128
phosphatase
  percent of phosphatase measured (optical density compared to the naïve condition), average: 100.0%
  percent of phosphatase measured (optical density compared to the naïve condition): 100.0%

## C=CCCC=C [1,5-Hexadiene]
Alkaline phosphatase [3]
  OD405 reading, ethanol solvent, 10 μL dose, 1-hour PNPP (FIG. 7B): 2.947
  OD405 reading, ethanol solvent, 10 μL dose, 30-minute PNPP (FIG. 7A): 1.702
Alkaline phosphatase [1]
  A2 - Results AVG: 2.717
  A2 - Results R1: 2.692
  A2 - Results R3: 2.693

## O=C(OCc1ccccc1)c1ccccc1O [Benzyl Salicylate]
Alkaline phosphatase [1]
  A2 - Results AVG: 3.317
  A2 - Results R1: 3.345
  A2 - Results R3: 3.333

## OCCOCCOCCO [Triethylene glycol]
phosphatase
  percent of phosphatase measured (optical density compared to the naïve condition), average: 28.9%
  percent of phosphatase measured (optical density compared to the naïve condition): 29.5% and 28.2%
skin; rabbit, in vivo
  Corrosive: No

## CC1=CCC(C(C)(C)O)CC1 (stereo not drawn) [alpha-Terpineol]
Alkaline phosphatase [1]
  A2 - Results AVG: 2.589
  A2 - Results R1: 2.223
  A2 - Results R3: 2.793
skin; rabbit, in vivo
  in vivo GHS: Cat. 2

## CCCCCBr [1-Bromopentane]
Alkaline phosphatase [1]
  A2 - Results AVG: 2.686
  A2 - Results R1: 2.590
  A2 - Results R3: 2.598
skin; [5]
  in vivo GHS: Cat. 2

## CC(C)O [Isopropanol]
Alkaline phosphatase [1]
  A2 - Results AVG: 2.528
  A2 - Results R1: 2.294
  A2 - Results R3: 2.389

## CCCCCCCCCCCCCC(=O)OC(C)C [Isopropyl Myristate]
Alkaline phosphatase [1]
  A2 - Results AVG: 3.339
  A2 - Results R1: 3.413
  A2 - Results R3: 3.360

## OCCc1ccccc1 [Phenylethyl alcohol]
Alkaline phosphatase [1]
  A2 - Results AVG: 3.303
  A2 - Results R1: 3.342
  A2 - Results R3: 3.287

## CC(C=O)Cc1ccc(C(C)C)cc1 (stereo not shown) [Cyclamen aldehyde]
Porcine skin; fresh porcine skin, R 1 and 2
  OD290: 0.290
phosphatase
  percent of phosphatase measured (optical density compared to the naïve condition), average: 100.0%
  percent of phosphatase measured (optical density compared to the naïve condition): 100.0%
Alkaline phosphatase [1]
  A2 - Results AVG: 2.777
  A2 - Results R1: 2.736
  A2 - Results R3: 2.845
skin; Yes/No
  Corrosive: No
skin; [5]
  in vivo GHS: Cat. 2

## CC(C)=CCC/C(C)=C/CO
Alkaline phosphatase [1]
  A2 - Results AVG: 1.894
  A2 - Results R1: 1.876
  A2 - Results R3: 1.956
skin; [5]
  in vivo GHS: Cat. 2

## CCCSSCCC [di-n-Propyl disulfide]
Porcine skin; [6]
  OD190: 0.419 and 0.400
Porcine skin; fresh porcine skin, R 1 and 2
  OD290: 0.139 and 0.137
  OD300: 0.105 and 0.096
Porcine skin; [4]
  OD190: 0.443 and 0.405
  OD290: 0.082 and 0.063
  OD300: 0.031 and 0.018
Porcine skin; frozen porcine skin, R 1 and 2
  OD190: 0.314 and 0.396
  OD290: 0.294 and 0.240
  OD300: 0.161 and 0.119
phosphatase
  percent of phosphatase measured (optical density compared to the naïve condition), average: 69.9%
  percent of phosphatase measured (optical density compared to the naïve condition): 68.1% and 71.6%
Alkaline phosphatase [1]
  A2 - Results AVG: 2.472
  A2 - Results R1: 2.649
  A2 - Results R3: 2.368
skin; Yes/No
  Corrosive: No
skin; [5]
  in vivo GHS: Cat. 2

## CC(C)(O)CCc1ccccc1 [2-Methyl-4-phenyl-2-butanol]
Porcine skin; fresh porcine skin, R 1 and 2
  OD290: 0.339 and 0.426
  OD300: 0.272 and 0.371
Porcine skin; [4]
  OD190: 0.215 and 0.322
  OD290: 0.079 and 0.094
  OD300: 0.026 and 0.052
Porcine skin; frozen porcine skin, R 1 and 2
  OD190: 0.338 and 0.362
  OD290: 0.496 and 0.637
  OD300: 0.342 and 0.497
phosphatase
  percent of phosphatase measured (optical density compared to the naïve condition), average: 99.3%
  percent of phosphatase measured (optical density compared to the naïve condition): 98.6% and 100.0%
skin; Yes/No
  Corrosive: No

## C=C(C)[C@@H]1CC=C(CO)CC1 [p-Metha-1,8-dien-7-ol]
Alkaline phosphatase [1]
  A2 - Results AVG: 2.793
  A2 - Results R1: 2.757
  A2 - Results R3: 2.868
skin; [5]
  in vivo GHS: Cat. 2

## CC(=O)OCc1ccccc1 [Benzyl Acetate]
Alkaline phosphatase [1]
  A2 - Results AVG: 3.385
  A2 - Results R1: 3.42
  A2 - Results R3: 3.484

## NCCO [Ethanolamine]
Porcine skin; [6]
  OD190: >3A
Porcine skin; fresh porcine skin, R 1 and 2
  OD290: 0.848 and 1.169
  OD300: 0.711 and 1.044
Porcine skin; [4]
  OD190: 0.761 and 0.800
  OD290: 0.168 and 0.093
Porcine skin; frozen porcine skin, R 1 and 2
  OD290: 0.708 and 0.767
  OD300: 0.524 and 0.598
phosphatase
  percent of phosphatase measured (optical density compared to the naïve condition), average: 19.9%
  percent of phosphatase measured (optical density compared to the naïve condition): 20.1% and 19.6%
Alkaline phosphatase [2]
  raw optical density reading (PNPP), with discs (FIG. 3A): 0.170 and 0.166 and 0.172
  raw optical density reading (PNPP), without discs (FIG. 3B): 0.174 and 0.185 and 0.175
skin; rabbit, in vivo
  Corrosive: Yes

## CCCCCCCCCCO [1-Decanol]
Alkaline phosphatase [1]
  A2 - Results AVG: 2.373
  A2 - Results R1: 2.205
  A2 - Results R3: 2.472
skin; rabbit, in vivo
  in vivo GHS: Cat. 2

## CC/C=C\CC1=C(C)CCC1=O
Alkaline phosphatase [1]
  A2 - Results AVG: 2.527
  A2 - Results R1: 2.405
  A2 - Results R3: 2.704
skin; rabbit, in vivo
  in vivo GHS: Cat. 2

## CC(CC=O)CCCC(C)(C)O (stereo not shown) [Hydroxycitronellal]
Alkaline phosphatase [1]
  A2 - Results AVG: 2.585
  A2 - Results R1: 2.513
  A2 - Results R3: 3.089

## CCCCCCCCC=O [Nonyl aldehyde]
Alkaline phosphatase [3]
  OD405 reading, ethanol solvent, 10 μL dose, 1-hour PNPP (FIG. 7B): 3.078
  OD405 reading, ethanol solvent, 10 μL dose, 30-minute PNPP (FIG. 7A): 1.589
Alkaline phosphatase [1]
  A2 - Results AVG: 2.227
  A2 - Results R1: 2.496
  A2 - Results R3: 2.117
skin; [5]
  in vivo GHS: Cat. 2
